Measurements published in PubChem BioAssay (NCI).
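Five concentrations, 48 hours, 96-well plates. TGI: concentration producing complete growth inhibition.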

How the values were obtained:
Test in all cases: NCI tumour cell line growth inhibition, 48 h
DMS 114 small cell lung = system: DMS 114 small cell lung
HOP-18 NSCLC = system: HOP-18 NSCLC
M19-MEL melanoma = system: M19-MEL melanoma
P388 leukemia = system: P388 leukemia
P388/ADR leukemia = system: P388/ADR leukemia
SN12K1 renal = system: SN12K1 renal
SNB-78 CNS = system: SNB-78 CNS
XF 498 CNS = system: XF 498 CNS
LXFL 529 NSCLC = system: LXFL 529 NSCLC
RXF-631 renal = system: RXF-631 renal

SMILES	TGI (DMS 114 small cell lung) [µM]	TGI (HOP-18 NSCLC) [µM]	TGI (M19-MEL melanoma) [µM]	TGI (P388 leukemia) [µM]	TGI (P388/ADR leukemia) [µM]	TGI (SN12K1 renal) [µM]	TGI (SNB-78 CNS) [µM]	TGI (XF 498 CNS) [µM]	TGI (LXFL 529 NSCLC) [µM]	TGI (RXF-631 renal) [µM]
Cc1c(-c2cc3n(n2)C(c2cccs2)C(C#N)=C(c2ccccc2)N3)c(=O)n(-c2ccccc2)n1C (stereo not given)	> 100	> 100	> 100	> 100	> 100	> 100	> 100	> 100	–	–
C=C1c2c(cc3c(c2O)c(=O)c2ccccc2n3C)OC1(C)C	> 100	> 100	> 100	–	–	–	> 100	57.2	> 100	> 100
NC(=O)CCC(NCc1c2ccccc2[n+]([O-])c2ccccc12)C(=O)O (stereo not given)	> 100	> 100	> 100	–	–	–	> 100	–	> 100	–
CC(C)(C)[Si](C)(C)OCCCC#CCO	> 100	–	–	–	–	–	> 100	> 100	> 100	> 100
CC(=O)c1ccc(Oc2ccc(/C(C)=N\N=C(N)N)cc2)cc1	4.98	–	–	–	–	–	16.6	–	17.4	–
O=P(O)(O)C(CSc1ccccc1)P(=O)(O)O	> 100	> 100	> 100	> 100	> 100	> 100	> 100	> 100	–	–
O=C(NO)c1coc2ccccc2c1=O	> 100	–	–	–	–	–	> 100	–	> 100	> 100
